Drawing on patent US20260327225A1, “HETEROCYCLIC COMPOUNDS AS TRIGGERING RECEPTOR EXPRESSED ON MYELOID CELLS 2 AGONISTS AND METHODS OF USE” (VIGIL NEUROSCIENCE, INC., priority 2023, published 2026), this text covers EC50 for 25 compounds.

Some results are limits rather than exact numbers.

As a reminder, the EC50 is the concentration at which the effect is half-maximal.

T1 sequence (Q9NZC2 19-230): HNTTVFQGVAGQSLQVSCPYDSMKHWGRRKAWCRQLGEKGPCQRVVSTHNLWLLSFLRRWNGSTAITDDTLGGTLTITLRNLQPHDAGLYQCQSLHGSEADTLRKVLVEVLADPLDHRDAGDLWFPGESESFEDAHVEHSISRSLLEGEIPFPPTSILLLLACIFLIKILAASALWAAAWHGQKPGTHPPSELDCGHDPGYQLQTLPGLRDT
T1 sequence (O43914 22-113 partner): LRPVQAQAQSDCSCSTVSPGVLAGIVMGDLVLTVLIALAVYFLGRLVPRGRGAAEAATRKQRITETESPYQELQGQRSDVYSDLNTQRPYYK

This test concerns the target T1, human TREM2 (Homo sapiens, UniProt Q9NZC2).
T1 construct: expressed in transfected cells; host or cells: HEK293T-hTREM2 cells (HEK cell line expressing human TREM2 and DAP12)
Kind of test: TREM2 agonist potency by cellular phosphorylation of Syk (AlphaLisa) in HEK293T-hTREM2 cells expressing human TREM2 and DAP12. To be noted: HEK293 cells expressing hTREM2 and DAP12; 45 minutes at room temperature; Syk phosphorylation, AlphaLisa; read-out: hTREM2 EC50. It is filed as cell-based. As for the experimental part: In vitro Measurement of Triggering Receptor Expressed on Myeloid Cells 2 activity using cellular phosphorylation of Spleen Tyrosine Kinase (“Syk”) Assays
Measurement of TREM2 agonist potency was done using a HEK cell line expressing human TREM2 and DAP12 (HEK293T-hTREM2 cells). Binding of small molecules to, and activation of, TREM2 increases the phosphorylation of Syk. The resultant levels of Syk phosphorylation are measured using a commercial AlphaLisa reagent kit. To perform the assay, HEK-hTREM2 cells were plated at 14,000 cells per well in a 384 well plate, in 25 μL of complete growth media and incubated at 37° C., 5% CO2 for 20-24 hours.
Prior to the assay, test compounds were diluted in the 384 well plates in assay buffer and allowed to equilibrate for 30 minutes. Growth media was removed from cell plates by inversion on blotting paper, and 25 μL of test articles in assay buffer was added to cells. Cells were incubated for 45 minutes at room temperature. After 45 minutes, assay buffer was removed and 10 μL of lysis buffer was added. Plates were shaken for 20 minutes at 350 RPM at room temperature. After complete lysis, AlphaLisa reagents were added to the lysate, and fluourescence intensity was measured using a Perkin Elmer Envision plate reader. Intensities were used to generate a standard curve, and % activation was calculated. Curve fitting was performed using Prism v9 software, log(agonist) vs response—variable slope (four parameters), and EC50s were calculated from the curve fit.
The results presented in Table B have been generated with the in vitro assay described above. This assay may be used to test any of the compounds described herein to assess and characterize a compound's ability to act as an agonist of TREM2.
On the technique in general: Bead proximity is the source of the signal in Alpha formats.
Regarding `Cc1nc2nc(N3C[C@@H](C)O[C@@H](c4cnn(C5CC5)c4)C3)nc(-c3ccc(F)cc3F)c2cc1C#N` [Example 21, 2-[(2S,6R)-2-(1-cyclopropylpyrazol-4-yl)-6-methyl-morpholin-4-yl]-4-(2,4-difluorophenyl)-7-methyl-pyrido[2,3-d]pyrimidine-6-carbonitrile], the EC50 is below 100 nM.

For the compound `COCn1cc([C@H]2CN(c3nc(C45CC(C(F)(F)F)(C4)C5)c4cc(C#N)c(C)nc4n3)C[C@@H](C)O2)cn1` [Example 71], the EC50 is below 100 nM.

On to `Cc1nc2nc(N3C[C@@H](C)O[C@@H](c4cnn(C5CC5)c4)C3)nc(-c3ccc(C#N)cc3F)c2nc1C` [Example 91, 4-[2-[(2S,6R)-2-(1-cyclopropylpyrazol-4-yl)-6-methyl-morpholin-4-yl]-6,7-dimethylpteridin-4-yl]-3-fluoro-benzonitrile], for which the EC50 was below 100 nM.

Turning to `Cc1cnc(-c2cc3c(-c4ccc(F)cc4F)nc(N4C[C@@H](C)O[C@@H](c5cnn(C6CC6)c5)C4)nc3nc2C)o1` [Example 13, (2S,6R)-2-(1-cyclopropylpyrazol-4-yl)-4-[4-(2,4-difluorophenyl)-7-methyl-6-(5-methyloxazol-2-yl)pyrido[2,3-d]pyrimidin-2-yl]-6-methyl-morpholine], the EC50 was below 100 nM.

As for `Cc1nc2nc([C@H]3CCO[C@@H](c4cnn(C5CC5)c4)C3)nc(C34C5C6C3C3C4C5C63C(F)(F)F)c2nc1C` (stereo partly drawn) [Example 143, 2-((2R,4S)-2-(1-cyclopropyl-1H-pyrazol-4-yl)tetrahydro-2H-pyran-4-yl)-6,7-dimethyl-4-(4-(trifluoromethyl)-cuban-1-yl)pteridine], the EC50 was below 100 nM.

As to `Cc1noc(-c2cc3c(C4CCCCC4)nc(N4CCO[C@@H](c5cnn(C)c5)C4)nc3nc2C)n1` [Example 44, (2S)-4-[4-cyclohexyl-7-methyl-6-(3-methyl-1,2,4-oxadiazol-5-yl)-pyrido [2,3-d]-pyrimidin-2-yl]-2-(1-methyl-pyrazol-4-yl) morpholine], the EC50 lay within 100 to 500 nM.

In the case of `Cc1nc2nc(C3CCOC(c4ccc5nnc(C)n5c4)C3)nc(-c3ccc(F)cc3F)c2nc1C` (stereo not shown) [Example 99, 4-(2,4-difluorophenyl)-6,7-dimethyl-2-[2-(3-methyl[1,2,4]-triazolo[4,3-a]pyridin-6-yl)tetrahydropyran-4-yl]pteridine], the EC50 was below 100 nM.

Take `Cc1nc2nc([C@H]3CCO[C@@H](c4cn(C)c(=O)s4)C3)nc(C34CC(C(F)(F)F)(C3)C4)c2cc1C#N` (racemic) [Example 81, 7-methyl-2-[rac-(2R,4S)-2-(3-methyl-2-oxo-thiazol-5-yl)tetrahydropyran-4-yl]-4-[3-(trifluoromethyl)-1-bicyclo[1.1.1]pentanyl]pyrido[2,3-d]pyrimidine-6-carbonitrile]: the EC50 was below 100 nM.

As to `Cc1nc2nc([C@H]3CCO[C@@H](c4cnn(C5CC5)c4)C3)nc(-c3ccc(F)cc3F)c2cc1C#N` [Example 18, 2-[(2R,4S)-2-(1-cyclopropylpyrazol-4-yl)tetrahydropyran-4-yl]-4-(2,4-difluorophenyl)-7-methyl-pyrido[2,3-d]pyrimidine-6-carbonitrile], the EC50 is below 100 nM.

With `Cc1nc2nc(N3C[C@@H](C)O[C@@H](c4cnn(C5CC5)c4)C3)nc(C34CC(C(F)(F)F)(C3)C4)c2cc1C#N` [Example 25, 2-[(2S,6R)-2-(1-cyclopropylpyrazol-4-yl)-6-methyl-morpholin-4-yl]-7-methyl-4-[3-(trifluoromethyl)-1-bicyclo[1.1.1]pentanyl]pyrido[2,3-d]pyrimidine-6-carbonitrile], the concentration giving a half-maximal response (EC50) is below 100 nM.

Consider `Cc1nc2nc(N3C[C@@H](C)O[C@@H](c4cnn(C5CC5)c4)C3)nc(-c3ccc(F)cc3F)c2cc1C(=O)O` [Example 3, 2-[(2S,6R)-2-(1-cyclopropylpyrazol-4-yl)-6-methyl-morpholin-4-yl]-4-(2,4-difluorophenyl)-7-methyl-pyrido[2,3-d]pyrimidine-6-carboxylic acid], for which the EC50 is above 500 nM.

As to `Cc1noc(-c2cc3c(C45CC(C(F)(F)F)(C4)C5)nc(N4C[C@@H](C)O[C@@H](c5cnn(C6CC6)c5)C4)nc3nc2C)n1` [Example 22, (2S,6R)-2-(1-cyclopropyl-pyrazol-4-yl)-6-methyl-4-[7-methyl-6-(3-methyl-1,2,4-oxadiazol-5-yl)-4-[3-(trifluoromethyl)-1-bicyclo[1.1.1]pentanyl]-pyrido[2,3-d]pyrimidin-2-yl]morpholine], the EC50 was below 100 nM.

For `Cc1nc2nc(C3CCOC(c4ccc5ncn(C)c5c4)C3)nc(-c3ccc(F)cc3F)c2nc1C` (stereo not shown) [Example 98, 4-(2,4-difluorophenyl)-6,7-dimethyl-2-[2-(3-methylbenzimidazol-5-yl)tetrahydropyran-4-yl]pteridine], the EC50 is below 100 nM.

For the compound `Cc1nc2nc(C3CCOC(c4ccc5nn(C)cc5c4)C3)nc(-c3ccc(F)cc3F)c2nc1C` (stereo not shown) [Example 114, 4-(2,4-difluorophenyl)-6,7-dimethyl-2-[2-(2-methylindazol-5-yl)tetrahydropyran-4-yl]pteridine], the concentration for a half-maximal effect (EC50) is below 100 nM.

`Cc1nc2nc(C3CCOC(c4ccc5ncnn5c4)C3)nc(-c3ccc(F)cc3F)c2nc1C` (stereo not shown) [Example 95]: the EC50 was below 100 nM.

Take `Cc1nc2nc(N3C[C@@H](C)O[C@@H](c4cnn(C5CC5)c4)C3)nc(C34CC(C3)C4)c2nc1C` [Example 100, (2S,6R)-4-[4-(1-bicyclo[1.1.1]pentanyl)-6,7-dimethyl-pteridin-2-yl]-2-(1-cyclopropylpyrazol-4-yl)-6-methyl-morpholine]: the EC50 was below 100 nM.

On to `Cc1nc2nc(N3C[C@@H](C)O[C@@H](c4cnn(C5CC5)c4)C3)nc(C34CC(C(F)(F)F)(C3)C4)c2cc1C(F)(F)F` [Example 74, (2S,6R)-2-(1-cyclopropyl-1H-pyrazol-4-yl)-6-methyl-4-(7-methyl-6-(trifluoromethyl)-4-(3-(trifluoromethyl)-bicyclo[1.1.1]pentan-1-yl)pyrido[2,3-d]pyrimidin-2-yl)morpholine], for which the EC50 was below 100 nM.

For `Cc1nc2nc(N3C[C@@H](C)O[C@@H](c4cnn(C(F)F)c4)C3)nc(C34CC(C(F)(F)F)(C3)C4)c2cc1C#N` [Example 66, 2-[(2S,6R)-2-[1-(difluoromethyl)pyrazol-4-yl]-6-methyl-morpholin-4-yl]-7-methyl-4-[3-(trifluoromethyl)-1-bicyclo[1.1.1]pentanyl]pyrido[2,3-d]pyrimidine-6-carbonitrile], the 50% effective concentration (EC50) was below 100 nM.

Turning to `Cc1nc2nc(N3C[C@@H](C)O[C@@H](c4cnn(C5CC5)c4)C3)nc(-c3ccc(F)cc3F)c2cc1C1=NCCO1` [Example 7, (2S,6R)-2-(1-cyclopropylpyrazol-4-yl)-4-[4-(2,4-difluorophenyl)-6-(4,5-dihydrooxazol-2-yl)-7-methyl-pyrido[2,3-d]pyrimidin-2-yl]-6-methyl-morpholine], the EC50 was below 100 nM.

Regarding `Cc1nc2nc(N3C[C@@H](C)O[C@@H](c4cnn(C5CC5)c4)C3)nc(C34C5C6C7C5C3C7C64)c2nc1C` (stereo partly drawn) [Example 121, (2S,6R)-4-(4-cuban-1-yl-6,7-dimethyl-pteridin-2-yl)-2-(1-cyclopropylpyrazol-4-yl)-6-methyl-morpholine], the EC50 lay in the range of 100 to 500 nM.

Regarding `Cc1nc2nc([C@H]3CCO[C@@H](c4cnn(C5CC5)c4)C3)nc(-c3ccc(F)cc3F)c2cc1C(=O)O` [Example 9, 4-(2,4-difluorophenyl)-7-methyl-2-[(2R,4S)-2-(1-cyclopropylpyrazol-4-yl)tetrahydropyran-4-yl]pyrido[2,3-d]pyrimidine-6-carboxylic acid], the EC50 is above 500 nM.

Take `Cc1nc2nc(N3CCO[C@@H](c4cnn(C)c4)C3)nc(C3CCCCC3)c2cc1C#N` [Example 45, 4-cyclohexyl-7-methyl-2-[(2S)-2-(1-methyl-pyrazol-4-yl)morpholin-4-yl]pyrido[2,3-d]pyrimidine-6-carbonitrile]: the EC50 is 100 to 500 nM.

On to `Cc1nc2nc(N3C[C@@H](C)O[C@@H](c4cnn(C5CC5)c4)C3)nc(C34CC(C(F)(F)F)(C3)C4)c2cc1C(F)(F)Cl` (racemic) [Example 90, (2S,6R)-4-(6-(chloro-difluoromethyl)-7-methyl-4-(3-(trifluoromethyl)-bicyclo[1.1.1]pentan-1-yl)pyrido[2,3-d]pyrimidin-2-yl)-2-(1-cyclopropyl-1H-pyrazol-4-yl)-6-methylmorpholine], for which the EC50 fell in the range of 100 to 500 nM.

For the compound `Cc1nc2nc([C@H]3CCO[C@@H](c4cnn(C5CC5)c4)C3)nc(C34CC(C(F)(F)F)(C3)C4)c2cc1S(C)(=O)=O` [Example 31, 2-[(2R,4S)-2-(1-cyclopropylpyrazol-4-yl)tetrahydropyran-4-yl]-7-methyl-6-methylsulfonyl-4-[3-(trifluoromethyl)-1-bicyclo[1.1.1]pentanyl]pyrido[2,3-d]pyrimidine], the EC50 is below 100 nM.

For the compound `Cc1nc2nc(C3CCOC(C4CCn5nccc5C4)C3)nc(C34CC(C(F)(F)F)(C3)C4)c2nc1C` (stereo not shown) [Example 110, 6,7-dimethyl-2-[2-(4,5,6,7-tetrahydropyrazolo[1,5-a]pyridin-5-yl)tetrahydropyran-4-yl]-4-[3-(trifluoromethyl)-1-bicyclo[1.1.1]pentanyl]pteridine], the half-maximal effective concentration (EC50) was below 100 nM.
